# Key:
# [1] = test system: CD4 T cells; assay: TCR-mediated activation of isolated CFSE-labeled CD4 T cells (anti-CD3/anti-CD28): cytokines, proliferation, CD25; format: cell-based, human; conditions: for CD25 expression [% positive cells] Average / Cell Proliferation [Cell divisions/cell] Average / IFN-gamma production [ng/ml] Average / IL-2 production [ng/ml] Average / TNF-alpha production [ng/ml] Average: anti-CD3/anti-CD28
# Procedure: • Buffy coat content was transferred to sterile plastic bottle and filled up to 480 ml with PBS, and distributed equally to 16×50 ml tubes (30 ml/tube) • Underlayed with ˜11 ml Lymphoprep and centrifuged 20 min (2200 rpm) • The interphase containing lymphocytes was taken off with transfer pipette, cells were washed twice with PBS and pooled to one tube to determine cell count (Coulter Diff ACT) Isolation of Immune Cell Subfractions from PBMCs by MACS • PBMCs were resuspended in MACS buffer (80 μl MACS-buffer/10^7 cells) and cells were isolated with Auto-MACS device using respective kits following manufacturer's recommendations TCR Stimulation and Measurement of T Cell Activation
# Isolated T cells were plated in Xvivo medium at 1.5*10 ^5 cells per in 96 well culture plates and TCR-stimulated with anti-CD3/28 mAbs in the presence of compound as indicated. Cytokine production was determined at 24 h or 48 h following TCR stimulation in cell culture supernatants using commercially available ELISA kits (BD and eBioscience) as recommended by the manufacturer. T cell proliferation and CD25 expression (CD25-PC5 reagent purchased from Beckman Coulter) was determined by flow cytometry (Beckman-Coulter FC500) and analysed with Kaluza Software. For measurement of CD69 expression, isolated CD4 and CD8 T cells were plated in Xvivo medium at […] per in 96 well culture plates and TCR-stimulated with anti-CD3/28 mAbs in the presence of compound. CD69 expression was determined at 24 h following TCR stimulation by flow cytometry (CD4eF450, CD8APCeF780 and CD69-PC7 reagent purchased from eBioscience) and analysed with Kaluza Software.
# Isolated CD4 T cells were CFSE-labeled and stimulated with anti-CD3 and anti-CD28 antibodies.
# [2] = test system: Monocytes; assay: FC receptor stimulation on myeloid cells (monocytes, precoated anti-GD2-Abs): TNF-alpha, IL-1, IL-6; format: cell-based, human
# Procedure: Isolated Monocytes were plated in Xvivo medium at 1.5*10^5 cells per in 96 well culture plates and stimulated by precoated anti-GD2-Abs (10 μg/ml, Apeiron) where indicated. Cytokine secretion was determined by enzyme-linked immunosorbent assay (ELISA). The results of the above experiment titled “Enhancement of reactivity of immune cells to stimulation by tumor-cell bound therapeutic antibody” indicate that compounds can enhance FcR stimulation of immune cells. However, in a set-up as used therein, it is difficult to subtract the effects of tumor-cell contact from the effects of Fc-receptor stimulation. Therefore, the effect of FcR-stimulation by the same anti-GD2-Ab was tested in a tumor-cell free assay set-up, where the anti-GD2 antibodies were coated to cell culture plates, thereby mimicking cell-bound antibodies.
compound,measurement,setting,value
"CCCCNC(=O)c1ccc2c(c1)N(Cc1ccc(OC(F)(F)F)cc1)C(=O)[C@@H](N)CS2(=O)=O.Cl [Example 67, (3R)-3-amino-N-butyl-1,1,4-trioxo-5-{[4-(trifluoromethoxy)phenyl]methyl}-2,3,4,5-tetrahydro-1λ^6,5-benzothiazepine-7-carboxamide hydrochloride]",CD25 expression [% positive cells] Average,[1]; 0.05 μM,47.88 % positive cells
same,Cell Proliferation [Cell divisions/cell] Average,[1]; 0.05 μM,0.49 Cell divisions/cell
same,IFN-gamma production [ng/ml] Average,[1]; 0.05 μM,0.06 ng/mL
same,IL-2 production [ng/ml] Average,[1]; 0.05 μM,0.13 ng/mL
same,TNF-alpha production [ng/ml] Average,[1]; 0.05 μM,0.26 ng/mL
same,CD25 expression [% positive cells] Average,[1]; 0.1 μM,50.80 % positive cells
same,Cell Proliferation [Cell divisions/cell] Average,[1]; 0.1 μM,0.58 Cell divisions/cell
same,IFN-gamma production [ng/ml] Average,[1]; 0.1 μM,0.10 ng/mL
same,IL-2 production [ng/ml] Average,[1]; 0.1 μM,0.21 ng/mL
same,TNF-alpha production [ng/ml] Average,[1]; 0.1 μM,0.42 ng/mL
same,CD25 expression [% positive cells] Average,[1]; 0.25 μM,59.10 % positive cells
same,Cell Proliferation [Cell divisions/cell] Average,[1]; 0.25 μM,0.84 Cell divisions/cell
same,IFN-gamma production [ng/ml] Average,[1]; 0.25 μM,0.23 ng/mL
same,IL-2 production [ng/ml] Average,[1]; 0.25 μM,0.56 ng/mL
same,TNF-alpha production [ng/ml] Average,[1]; 0.25 μM,0.71 ng/mL
same,CD25 expression [% positive cells] Average,[1]; 0.5 μM,69.50 % positive cells
same,Cell Proliferation [Cell divisions/cell] Average,[1]; 0.5 μM,1.03 Cell divisions/cell
same,IFN-gamma production [ng/ml] Average,[1]; 0.5 μM,0.40 ng/mL
same,IL-2 production [ng/ml] Average,[1]; 0.5 μM,1.00 ng/mL
same,TNF-alpha production [ng/ml] Average,[1]; 0.5 μM,1.12 ng/mL
same,CD25 expression [% positive cells] Average,[1]; 1 μM,79.50 % positive cells
same,Cell Proliferation [Cell divisions/cell] Average,[1]; 1 μM,1.20 Cell divisions/cell
same,IFN-gamma production [ng/ml] Average,[1]; 1 μM,0.64 ng/mL
same,IL-2 production [ng/ml] Average,[1]; 1 μM,2.50 ng/mL
same,TNF-alpha production [ng/ml] Average,[1]; 1 μM,1.65 ng/mL
same,CD25 expression [% positive cells] Average,[1]; 2.5 μM,77.71 % positive cells
same,Cell Proliferation [Cell divisions/cell] Average,[1]; 2.5 μM,1.35 Cell divisions/cell
same,IFN-gamma production [ng/ml] Average,[1]; 2.5 μM,1.46 ng/mL
same,IL-2 production [ng/ml] Average,[1]; 2.5 μM,7.48 ng/mL
same,TNF-alpha production [ng/ml] Average,[1]; 2.5 μM,4.11 ng/mL
same,CD25 expression [% positive cells] Average,[1]; 5 μM,79.53 % positive cells
same,Cell Proliferation [Cell divisions/cell] Average,[1]; 5 μM,1.40 Cell divisions/cell
same,IFN-gamma production [ng/ml] Average,[1]; 5 μM,2.22 ng/mL
same,IL-2 production [ng/ml] Average,[1]; 5 μM,11.11 ng/mL
same,TNF-alpha production [ng/ml] Average,[1]; 5 μM,5.47 ng/mL
same,CD25 expression [% positive cells] Average,[1]; 10 μM,79.64 % positive cells
same,Cell Proliferation [Cell divisions/cell] Average,[1]; 10 μM,1.38 Cell divisions/cell
same,IFN-gamma production [ng/ml] Average,[1]; 10 μM,2.81 ng/mL
same,IL-2 production [ng/ml] Average,[1]; 10 μM,13.62 ng/mL
same,TNF-alpha production [ng/ml] Average,[1]; 10 μM,7.19 ng/mL
same,CD25 expression [% positive cells] Average,[1]; 20 μM,75.14 % positive cells
same,Cell Proliferation [Cell divisions/cell] Average,[1]; 20 μM,1.33 Cell divisions/cell
same,IFN-gamma production [ng/ml] Average,[1]; 20 μM,3.29 ng/mL
same,IL-2 production [ng/ml] Average,[1]; 20 μM,15.11 ng/mL
same,TNF-alpha production [ng/ml] Average,[1]; 20 μM,9.31 ng/mL
same,T cell proliferation and expression of the surface activation marker CD25,[1]; anti-CD3 and anti-CD28,enhanced
same,"production of key cytokines (IL-2, IFN-gamma, TNF-alpha)",[1]; anti-CD3 and anti-CD28,strongly enhanced
"CC(C)NC(=O)c1cc2c(cc1F)S(=O)(=O)C[C@H](N)C(=O)N2Cc1ccc(Cl)cc1.Cl [Example 77, (3R)-3-amino-5-[(4-chlorophenyl)methyl]-8-fluoro-1,1,4-trioxo-N-(propan-2-yl)-2,3,4,5-tetrahydro-1λ^6,5-benzothiazepine-7-carboxamide hydrochloride]",IL-1,"[2]; FcR stimulated, 0.01 μM",1.14 ng/mL
same,IL-6,"[2]; FcR stimulated, 0.01 μM",1.61 ng/mL
same,TNF-alpha,"[2]; FcR stimulated, 0.01 μM",1.62 ng/mL
same,IL-1,"[2]; FcR stimulated, 0.03 μM",1.52 ng/mL
same,IL-6,"[2]; FcR stimulated, 0.03 μM",2.33 ng/mL
same,TNF-alpha,"[2]; FcR stimulated, 0.03 μM",2.49 ng/mL
same,IL-1,"[2]; FcR stimulated, 0.1 μM",1.09 ng/mL
same,IL-6,"[2]; FcR stimulated, 0.1 μM",2.10 ng/mL
same,TNF-alpha,"[2]; FcR stimulated, 0.1 μM",2.57 ng/mL
same,IL-1,"[2]; FcR stimulated, 0.3 μM",4.16 ng/mL
same,IL-6,"[2]; FcR stimulated, 0.3 μM",5.65 ng/mL
same,TNF-alpha,"[2]; FcR stimulated, 0.3 μM",6.57 ng/mL
same,IL-1,"[2]; FcR stimulated, 1 μM",5.88 ng/mL
same,IL-6,"[2]; FcR stimulated, 1 μM",7.46 ng/mL
same,TNF-alpha,"[2]; FcR stimulated, 1 μM",11.02 ng/mL
same,IL-1,"[2]; FcR stimulated, 3 μM",5.50 ng/mL
same,IL-6,"[2]; FcR stimulated, 3 μM",5.93 ng/mL
same,TNF-alpha,"[2]; FcR stimulated, 3 μM",14.11 ng/mL
same,IL-1,"[2]; FcR stimulated, 10 μM",7.44 ng/mL
same,IL-6,"[2]; FcR stimulated, 10 μM",5.86 ng/mL
same,TNF-alpha,"[2]; FcR stimulated, 10 μM",16.44 ng/mL
same,IL-1,"[2]; FcR stimulated, 30 μM",7.77 ng/mL
same,IL-6,"[2]; FcR stimulated, 30 μM",6.20 ng/mL
same,TNF-alpha,"[2]; FcR stimulated, 30 μM",14.85 ng/mL
same,"activation of myeloid cells by FcR stimulation (TNF-alpha, IL-1, IL-6 secretion)","[2]; monocytes, plate-coated anti-GD2 antibodies","directly enhanced the activation of myeloid cells by FcR stimulation, which resulted in increased secretion of TNF-alpha, IL-1 and IL-6"
same,IL-6,"[2]; unstimulated, 0.1 μM",0.14 ng/mL
same,IL-6,"[2]; unstimulated, 0.3 μM",0.13 ng/mL
same,IL-6,"[2]; unstimulated, 1 μM",0.14 ng/mL
same,IL-6,"[2]; unstimulated, 3 μM",0.13 ng/mL
same,IL-6,"[2]; unstimulated, 10 μM",0.13 ng/mL
same,IL-6,"[2]; unstimulated, 30 μM",0.13 ng/mL
same,TNF-alpha,"[2]; unstimulated, 30 μM",0.02 ng/mL
